Laboratory results from US8299097B2, “Methods for treating inflammatory disorders” (The Brigham and Women's Hospital, Inc., priority 2008, dated 2012).

What was measured:
LAD2 cells = experiment: Calcium flux of LAD2 cells stimulated with LTD4 or LTE4; format: cell-based, human; settings: agonists 500 nM; MK571 1 μM, 2-MesAMP 100 μM
Protocol: FIG. 2. Requirement for P2Y12 receptors in LTE4-mediated LAD2 cell activation. 2A. Calcium flux of LAD2 cells stimulated with the indicated agonists (500 nM) in the presence or absence of the P2Y12 receptor-selective antagonist 2-MeSAMP (100 μM). […] 2B. […] Cells sensitized overnight with IgE and challenged with anti-IgE were used as the positive control. 2C. […] Results in 2B and 2C are mean±SEM from three independent experiments each. 2D. Effect of shRNA-mediated knockdown of P2Y12 receptor mRNA expression by LAD2 cells.
Pre-treatment of the LAD2 cells with 2-MesAMP blocked the LTE4-mediated increment in MIP-1β production by >50% (FIG. 2B). […] To exclude potential off-target effects of the inhibitors, samples of LAD2 cells were transfected with lentiviruses encoding a P2Y12 sequence-specific shRNA, a CysLT1R-specific shRNA, or an empty vector control before stimulation. […] LTE4- and LTD4-dependent production of PGD2 were abrogated by the knockdowns of P2Y12 and CysLT1R, respectively (FIG. 2C, bottom). Neither GPCR knockdown altered MIP-1β generation or PGD2 production in response to IgE-anti-IgE (FIG. 2C). LTE4-mediated MIP-1β generation (FIG. 9A) and ERK activation (FIG. 9B) were not altered by treatment of LAD2 cells with apyrase to degrade extracellular ADP.
LAD2 cells (0.5-1×10^6/sample) were washed and labeled with fura 2-AM for 30 min at 37° C. […]

P2Y12 receptors = experiment: Competitive radioligand binding of [H^3]ADP to LAD2 cell membranes; design: species or system human
Protocol: (§1) FIG. 10. Competitive ligand binding assays. 10A. […] Specific binding (typically 50-75% of the total) was calculated by subtracting the amount of radiolabel that was insensitive to the selective P2Y12 receptor antagonist 2-MesAMP. Nonspecific binding was essentially identical in the membranes with and without P2Y12 receptor knockdown. The dose response for the LAD2 membranes are from a single experiment repeated four times with similar results. The binding on the LAD2 cells with P2Y12 knocked down was repeated twice. 10B. Specific binding of radiolabeled ADP (2000 nM) to membranes of LAD2 cells. […] Results are mean±SD from three separate experiments. 10C. Conversion of radiolabeled LTD4 to LTE4 as confirmed by HPLC (left). […] Results in a second experiment were similar 10D. Competitive binding of radiolabeled 2-MesADP to COS-7 cells transfected with the human P2Y12 construct.
Competitive radioligand binding assays were performed using [H^3]ADP (the known natural ligand of P2Y12 receptors) and unlabeled LTs as competitors. […] The membranes from the transfectants expressing the forward construct bound [P^33]2-MesADP, a selective P2Y12 receptor agonist.
[^3H] […] The converted product was extracted into 400 μl of methanol, evaporated in presence of nitrogen and diluted to the required concentration with the binding buffer for the binding assay. The conversion was confirmed by running an aliquot on high-performance reverse phase liquid chromatography. […] Briefly, cells were washed in PBS, resuspended in PBS supplemented with protease inhibitor cocktail and lysed by sonication for 5 min. The lysed cells were centrifuged at 100,000 Xg for 45 min and the microsomal pellet was resuspended in 1 ml PBS. Protein concentration was determined using Biorad Protein Assay Kit. 50 μg of membrane protein was incubated for 1 h at room temperature in 250 μl of 10 mM Hepes/KOH, pH 7.4, with various concentrations of radiolabeled ligand and cold competitor. Bound [^3H] was separated from free [^3H] by filtration through GF/C filters (Whatman) and washed twice with 10 mM Hepes/KOH, pH 7.4, containing 0.01% BSA. The residual membrane-associated [^3H] on the filter was determined in 2 ml scintillation fluid by beta counter (Perkin Elmer). For [^3H]ADP, specific binding was determined by subtracting the amount of [^3H] bound in the presence of 100 μM 2-MesADP from total binding.

[1] = Direct binding of [H^3]LTE4 to LAD2 cell membranes; design: species or system human
Protocol: as §1
Competitive radioligand binding assays were performed using [H^3]ADP (the known natural ligand of P2Y12 receptors) and unlabeled LTs as competitors. […]
[^3H] […] Protein concentration was determined using Biorad Protein Assay Kit. […] The residual membrane-associated [^3H] on the filter was determined in 2 ml scintillation fluid by beta counter (Perkin Elmer). For [^3H]ADP, specific binding was determined by subtracting the amount of [^3H] bound in the presence of 100 μM 2-MesADP from total binding.

Row | SMILES | effect on LTD4- or LTE4-mediated calcium flux (LAD2 cells) | specific ADP binding blocked (P2Y12 receptors; unlabeled LTE4 0.1 nM, mean±SEM, four experiments) | specific ADP binding blocked (P2Y12 receptors; unlabeled LTE4 1 nM, mean±SEM, four experiments) | specific ADP binding blocked (plateau) (P2Y12 receptors; unlabeled LTE4 1 μM, mean±SEM, four experiments) | competition with labeled ADP, LTE4 compared with LTD4 (P2Y12 receptors; unlabeled competitors 10 μM) | binding of [H^3]LTE4 to LAD2 cell membranes [1]
1 | CN(C)C(=O)CCSC(SCCC(=O)O)c1cccc(/C=C/c2ccc3ccc(Cl)cc3n2)c1 (stereo not drawn) [MK571] | blocked calcium responses |  |  |  |  | 
2 | CCCCC/C=C\C\C=C/C=C/C=C/[C@@H](SC[C@H](N)C(=O)O)[C@@H](O)CCCC(=O)O [LTE4] |  | 39±9% | 50±9% | 60±7% | more efficacious than LTD4 | weakly bound
